The values below come from patent publication US11279733B2, “Peptide antibiotics” (priority 2017, dated 2022).

In series [1] the test system is P. aeruginosa GN_043, PmxR. Summed up: (§1)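 Mid-log cultures grown in Mueller Hinton broth at 37° C were tested by 2-fold broth microdilution at 5×10^5 CFU/mL final. Compounds were dissolved in water and tested over a final range of 32 to 0.015 μg/mL.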
For series [2], the system named is K. pneumoniae ATCC BAA-2146, NDM-1 pos. Particulars: ATCC BAA-2146. The procedure, abridged: as §1
In series [3] the test system is K. pneumoniae ATCC 700603, MDR. The settings on record: ATCC 700603. Summed up: as §1
Series [4] has as its system K. pneumoniae GN_102 PmxR. The settings on record: GN 102 PmxR. Summed up:
as §1

The test system of another series is A. baumannii ATCC 19606. Particulars: ATCC 19606. Summed up: as §1
Series [5] concerns K. pneumoniae GN_106, PmxR. Particulars: GN 106, PmxR. Summed up:
as §1

A further series has as its system P. aeruginosa ATCC 27853. The settings on record: ATCC 27853. Summed up: as §1
Series [6] deals with P. aeruginosa GN_105, PmxR. Particulars: GN 105, PmxR. Summed up: as §1
A further series has as its system E. coli ATCC 25922. Particulars: ATCC 25922. The procedure, abridged: as §1
For series [7], the system named is S. aureus ATCC 25923, MSSA. The settings on record: ATCC 25923. The procedure, abridged:
as §1

The subject of a further series is K. pneumoniae ATCC 13883. Particulars: ATCC 13883. The procedure, abridged: as §1
The test system of the next series is A. baumannii GN_093 PmxR. Particulars: GN 093 PmxR. The procedure, abridged: as §1
Series [8] can be described thus: in vitro. The settings on record: human. The procedure, abridged:
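Cells were seeded at 4000 per well and allowed to attach for 24 h at 37 °C, 5% CO2, then exposed to compounds for 24 h. Resazurin (5 μM) was added for 2 h at 37 °C and fluorescence read at 560/590 nm. CC50 was derived by curve fitting of dose-dependent growth inhibition.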

Series [9] is described as follows: in vitro. The settings on record: human. The method, then: Cytotoxicity of the synthesised peptides was evaluated by comparison with commercially available colistin (polymyxin E), polymyxin B (Sigma chemical Co., St. Louis, Mo., U.S.A.) and synthetic octapeptin C4 by conducting lactate dehydrogenase (LDH) assay. CC50 values calculated based on curve fitting of dose dependent inhibition of cell growth represented the cytotoxicity of the peptide. Human kidney 2 (HK2) cells were seeded as 2000 cells per well in a 384 well cell culture plate in a final volume of 20 μL in DMEM/F12 medium (Invitrogen #11330057), in which 10% of FBS was added. Cells were incubated for 24 hours at 37° C., 5% CO2 to allow cells to attach to the plates. Similar conditions were employed for HEK293 and HepG2 cytotoxicity assays.
Cytotoxicity to HEK293 and HepG2 cells was determined using the resazurin assay (McMillian, M. K.; Li, L.; Parker, J. B.; Patel, L.; Zhong, Z.; Gunnett, J. W.; Powers, W. J.; Johnson, M. D. An improved resazurin-based cytotoxicity assay for hepatic cells; Cell Biol. Toxicol. 2002, 18, 157-173; O'Brien, J.; Wilson, I.; Orton, T.; Pognan, F. Investigation of the Alamar Blue (resazurin) fluorescent dye for the assessment of mammalian cell cytotoxicity. Eur. J. Biochem. 2000, 267, 5421-5426). In brief, HEK293 and HepG2 cells were seeded at 4000 cells/well in black-wall, clear-bottom 384-well plates (Corning, Australia) and incubated for 24 h at 37° C., 5% CO2. Compounds were then added into each well. After 24 h incubation, 5 μM resazurin was added per well and incubated at 37° C. for 2 h. Fluorescence intensity was then read using a Polarstar Omega with excitation/emission 560/590. The data was then analyzed using GraphPad Prism 6 software. CC50 values were determined using GraphPad Prism 6 software (Inc. La Jolla, Calif.).
The source holds these as a separate data set.

The test system of a further series is Neisseria gonorrhoeae. Description: MIC determination, Neisseria gonorrhoeae. The format is cell-based. The settings on record: strain FA19 ATCC BAA-1838. As to the method:
Bacteria were either obtained from American Type Culture Collection (ATCC; Manassas, Va., USA) or independent academic clinical isolate collections, as listed in Table 18 below. Bacteria were cultured in Nutrient broth (NB; Bacto Laboratories, catalogue No. 234000) or Mueller Hinton broth (MHB; Bacto Laboratories, catalogue No. 211443) at 37° C. overnight with shaking (˜180 RPM). A sample of each culture was then diluted 50-fold in fresh MHB and incubated at 37° C. for 2-3 h with shaking (˜180 RPM). Compound stock solutions were prepared as 0.64 mg/mL or 2.56 mg/mL in water. The compounds, at twice the final desired concentration, were serially diluted 2-fold across the wells of 96-well plates (Polystyrene, Corning, catalogue No. 3370). Mid-log phase bacterial cultures (after 2-3 h incubation) were diluted to a final concentration of 1×10^6 colony forming units (CFU)/mL, and 50 μL was added to each well giving a final cell density of 5×10^5 and a compound concentration range of 32 μg/mL to 0.015 μg/mL (128-0.06 μg/mL against P. aeruginosa PA9704).

Converted amounts (≈) assume the structure as drawn. Read-outs that look alike come from different tables or passages of the source. Starred links: 1 amine or outer side, 2 acyl side, 3 side chain; linkers in the order of their positions; H or OH if unused. Positions of bridges follow the written chain, without caps; N, C: chain ends. Non-standard residues stand in square brackets, D forms with d. Residues, ends and D or L forms follow the SMILES beside them. *: point of attachment. Decanoyl(3R-OH) = CCCCCCC[C@@H](O)CC(=O)*; dPhe(3-Cl) = N[C@H](Cc1cccc(Cl)c1)C(=O)O; azaDab = NCCN(N[*:1])C(=O)[*:2]; dDab = NCC[C@@H](N)C(=O)O; dDap = NC[C@@H](N)C(=O)O; Dab = NCC[C@H](N)C(=O)O A value given as a limit tells only on which side of the number the result lay.

Take `CCCCCCC[C@@H](O)CC(=O)N[C@H](CCN)C(=O)N[C@H]1CCNC(=O)[C@H](CC(C)C)NC(=O)N(CCN)NC(=O)[C@H](CCN)NC(=O)[C@H](CC(C)C)NC(=O)[C@@H](Cc2ccccc2)NC(=O)[C@H](CCN)NC1=O` [compound 8782, 3(R)OH-nC9CO-D-Dab-cyc[L-Dab-L-DAB-D-Phe-L-Leu-L-Dab-azaDab-L-Leu]] ({Decanoyl(3R-OH)}-[dDab][Dab][Dab][dF]L[Dab][azaDab]L; lactam 2-C): the “MIC, P. aeruginosa FADDI-PA070, PmxR” value in [1] (strain name as in Table 11) was determined as 8 µg/mL (≈ 7.65 µM). The “MIC K. pneumoniae ATCC BAA-2146, NDM-1 pos” value in series [2] is greater than 32 µg/mL. In addition, in series [3], the “MIC K. pneumoniae ATCC 700603, MDR” value turned out to be 32 µg/mL (≈ 30.6 µM). In [4], the “MIC K. pneumoniae Cl Koprana 10065 0661:1 PmxR” value is greater than 32 µg/mL. Besides, the “MIC A. baumannii ATCC 19606” value against A. baumannii ATCC 19606 was greater than 32 µg/mL. Further, the “MIC K. pneumoniae Cl 183-16357-20352, PmxR” value in series [5] was greater than 32 µg/mL. In addition, the “MIC P. aeruginosa ATCC 27853” value in the series on P. aeruginosa ATCC 27853 was found to be 2 µg/mL (≈ 1.91 µM). Moreover, the “MIC P. aeruginosa PA9704, PmxR” value in series [6] came out at 32 µg/mL (≈ 30.6 µM). For the same molecule, in the series with E. coli ATCC 25922, the “MIC E. coli ATCC 25922” value turned out to be 16 µg/mL (≈ 15.3 µM). Also, the “MIC S. aureus ATCC 25923, MSSA” value in series [7] stood at 16 µg/mL (≈ 15.3 µM). The “MIC K. pneumoniae ATCC 13883” value with K. pneumoniae ATCC 13883 was determined as 32 µg/mL (≈ 30.6 µM). In the series on A. baumannii GN_093 PmxR, the “MIC A. baumannii Cl Ptyela 10073 4512:2, PmxR” value was greater than 32 µg/mL. Further, the CC50 at 24 h in the series “in vitro [8]” and in “in vitro [9]” was greater than 300 µM throughout.
Consider `CCCCCCC[C@@H](O)CC(=O)N[C@H](CCN)C(=O)N[C@H]1CCNC(=O)[C@H](Cc2c[nH]c3ccccc23)NC(=O)[C@H](CCN)NC(=O)[C@H](CCN)NC(=O)[C@H](CC(C)C)NC(=O)[C@@H](Cc2cccc(Cl)c2)NC(=O)[C@H](CCN)NC1=O` [compound 8914, 3(R)OH-nC9CO-D-Dab-cyc[L-Dab-L-Dab-D-Phe(3-Cl)-L-Leu-L-Dab-L-Dab-L-Trp]] ({Decanoyl(3R-OH)}-[dDab][Dab][Dab][dPhe(3-Cl)]L[Dab][Dab]W; lactam 2-C), for which the “MIC N. gonorrhoeae FA19 ATCC BAA-1838” value in the series on Neisseria gonorrhoeae turned out to be 0.78 µg/mL (≈ 0.677 µM). Also, the “MIC P. aeruginosa GN_043, PmxR” value in series [1] (polymyxin-resistant) was found to be 4 µg/mL (≈ 3.47 µM). Moreover, the “MIC K. pneumoniae ATCC BAA-2146, NDM-1 pos” value in series [2] was found to be 4 µg/mL (≈ 3.47 µM). In addition, in [3], the “MIC K. pneumoniae ATCC 700603, MDR” value came out at 2 µg/mL (≈ 1.74 µM). The “MIC K. pneumoniae GN_102 PmxR” value in series [4] worked out at 4 µg/mL (≈ 3.47 µM). In addition, in the series with A. baumannii ATCC 19606, the “MIC A. baumannii ATCC 19606” value amounted to 4 µg/mL (≈ 3.47 µM). Further, the “MIC K. pneumoniae GN_106, PmxR” value in series [5] came out at 4 µg/mL (≈ 3.47 µM). In addition, the “MIC P. aeruginosa ATCC 27853” value in the series with P. aeruginosa ATCC 27853 came to 2 µg/mL (≈ 1.74 µM). For the same molecule, in [6], the “MIC P. aeruginosa GN_105, PmxR” value was 1 µg/mL (≈ 0.868 µM). In the series on E. coli ATCC 25922, the “MIC E. coli ATCC 25922” value amounted to 2 µg/mL (≈ 1.74 µM). Also, the “MIC S. aureus ATCC 25923, MSSA” value in series [7] was found to be 2 µg/mL (≈ 1.74 µM). Moreover, in the series with K. pneumoniae ATCC 13883, the “MIC K. pneumoniae ATCC 13883” value is 2 µg/mL (≈ 1.74 µM). Besides, the “MIC A. baumannii GN_093 PmxR” value with A. baumannii GN_093 PmxR was 4 µg/mL (≈ 3.47 µM). The CC50 at 24 h in “in vitro [8]” turned out to be 25 µM.
As for `CCCCCCC[C@@H](O)CC(=O)N[C@H](CN)C(=O)N[C@H]1CCNC(=O)[C@H](CC(C)C)NC(=O)[C@H](CCN)NC(=O)[C@H](CO)NC(=O)[C@H](CC(C)C)NC(=O)[C@@H](Cc2ccccc2)NC(=O)[C@H](CCN)NC1=O` [compound 9193, 3(R)-OH-nC9CO-D-Dab-cyc[L-Dab-L-Dab-L-Leu-D-Phe-L-Dab-L-Dab-L-Leu]] ({Decanoyl(3R-OH)}-[dDap][Dab][Dab][dF]LS[Dab]L; lactam 2-C), the “MIC N. gonorrhoeae FA19 ATCC BAA-1838” value in the series on Neisseria gonorrhoeae came to 25 µg/mL (≈ 24.6 µM). In addition, the “MIC, P. aeruginosa FADDI-PA070, PmxR” value in series [1] (Table 5, polymyxin-resistant) was greater than 32 µg/mL. For the same molecule, in series [2], the “MIC, K. pneumoniae ATCC BAA-2146, NDM-1 pos” value was greater than 32 µg/mL. The “MIC, K. pneumoniae ATCC 700603, MDR” value in series [3] was greater than 32 µg/mL. For the same molecule, the “MIC, K. pneumoniae Cl Koprana 10065 0661:1, PmxR” value in [4] is greater than 32 µg/mL. Moreover, the “MIC, A. baumannii ATCC 19606” value with A. baumannii ATCC 19606 came out at 32 µg/mL (≈ 31.5 µM). For the same molecule, the “MIC, K. pneumoniae Cl 138-16347-20362, PmxR” value in series [5] was greater than 32 µg/mL. Also, the “MIC, P. aeruginosa ATCC 27853” value against P. aeruginosa ATCC 27853 was 32 µg/mL (≈ 31.5 µM). Besides, the “MIC, P. aeruginosa PA9704, PmxR” value in series [6] was greater than 32 µg/mL. For the same molecule, the “MIC, E. coli ATCC 25922” value in the series with E. coli ATCC 25922 is greater than 32 µg/mL. In addition, the “MIC, S. Aureus ATCC 25923, MSSA” value in series [7] was greater than 32 µg/mL. For the same molecule, the “MIC, K. pneumoniae ATCC 13883” value with K. pneumoniae ATCC 13883 is greater than 32 µg/mL. For the same molecule, in the series with A. baumannii GN_093 PmxR, the “MIC, A. baumannii Cl Ptyela 10073 4512:2, PmxR” value is greater than 32 µg/mL. This molecule had a CC50 at 24 h in “in vitro [8]” greater than 300 µM.
